In brackets after ≈: the same amount, converted by molar mass. Activity calls are given as the source filed them. The calls are words filed in the database; no cut-off is given here.
How the values were obtained:
[1] = molecular target: T1, Lanosterol 14-alpha demethylase (Candida albicans (strain SC5314 / ATCC MYA-2876) (Yeast), UniProt P10613); assay: Inhibition of CYP51 in Candida albicans SC5314 assessed as increase in eburicol level at 0.008 ug/ml incubated for 8 hrs by GC-MS analysis relative to control; parameters: scale not given: the % may be the effect or the level left; details: at 0.008 µg/mL
T1 sequence (P10613 whole entry): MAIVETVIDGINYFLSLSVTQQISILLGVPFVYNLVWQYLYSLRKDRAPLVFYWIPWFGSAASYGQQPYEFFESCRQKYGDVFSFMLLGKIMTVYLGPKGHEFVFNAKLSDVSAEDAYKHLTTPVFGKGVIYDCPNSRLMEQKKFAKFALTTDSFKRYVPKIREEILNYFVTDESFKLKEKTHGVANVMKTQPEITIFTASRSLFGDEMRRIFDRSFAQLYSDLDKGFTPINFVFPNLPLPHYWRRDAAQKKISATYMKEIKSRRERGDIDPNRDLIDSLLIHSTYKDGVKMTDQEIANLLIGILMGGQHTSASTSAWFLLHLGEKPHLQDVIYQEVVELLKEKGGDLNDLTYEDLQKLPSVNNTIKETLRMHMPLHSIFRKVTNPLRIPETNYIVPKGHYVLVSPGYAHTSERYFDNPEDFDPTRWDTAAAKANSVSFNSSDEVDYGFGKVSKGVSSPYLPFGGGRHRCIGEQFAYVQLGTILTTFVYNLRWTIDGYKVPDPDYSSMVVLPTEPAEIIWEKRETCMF

[2] = Half-life in male ICR (CD-1) mouse at 10 mg/kg, po by LC-MS/MS analysis; type: ADME, organism-based; details: in vivo
Pichia kudriavzevii [3] = assay: Antifungal activity against Candida krusei 4946 assessed as inhibition of fungal growth at 0.125 ug/ml incubated for 24 hrs by plate reader analysis; type: functional, organism-based; details: dose 0.125 µg/ml
Candida albicans [4] = assay: Antifungal activity against Candida albicans SC5314 assessed as inhibition of fungal growth at 0.0156 ug/ml incubated for 24 hrs by plate reader analysis; type: functional, organism-based; details: dose 0.0156 µg/ml
Candida albicans [5] = assay: Antifungal activity in Candida albicans SC5314 assessed as inhibition of fungal growth incubated for 4 days by induction of resistance assay; type: functional; details: SC5314, 96 h, time 4 day
Nakaseomyces glabratus [6] = assay: Antifungal activity against Candida glabrata 537 assessed as inhibition of fungal growth incubated for 48 hrs by CLSI protocol based microbroth dilution method; type: functional
Candida albicans [7] = assay: Antifungal activity against Candida albicans SC5314 infected in ICR mouse model assessed as fungal burden in kidney at 1 mg/kg/day, po pre-infected with fungi for 2 hrs followed by compound administration and measured after 48 hrs (reference value: 3.89 Log10CFU/g); type: functional
[8] = Oral bioavailability in male ICR (CD-1) mouse at 10 mg/kg by LC-MS//MS analysis; type: ADME, organism-based; details: in vivo
[Candida] auris [9] = Antifungal activity against fluconazole resistant Candida auris D12 assessed as inhibition of fungal growth incubated for 48 hrs by CLSI protocol based microbroth dilution method; type: functional; details: Candidozyma auris
[10] = Clearance in male ICR (CD-1) mouse at 5 mg/kg, iv by LC-MS/MS analysis; type: ADME, organism-based; details: in vivo
Candida tropicalis [11] = assay: Antifungal activity against Candida tropicalis 2718 assessed as inhibition of fungal growth incubated for 24 hrs by CLSI protocol based microbroth dilution method; type: functional
Candida albicans [12] = assay: Antifungal activity against Candida albicans SC5314 infected in ICR mouse model assessed as median survival time at 5 mg/kg/day, po pre-infected with fungi for 2 hrs followed by compound administration and measured after 48 hrs (reference value: 3.5 days); type: functional
[13] = molecular target: T1, Lanosterol 14-alpha demethylase; assay: Inhibition of CYP51 in Candida albicans SC5314 assessed as decrease in ergosterol level at 0.008 ug/ml incubated for 8 hrs by GC-MS analysis; details: at 0.008 µg/mL
[14] = Tmax in male ICR (CD-1) mouse at 10 mg/kg, po by LC-MS/MS analysis; type: ADME, organism-based; details: in vivo
Candida parapsilosis = assay: Antifungal activity against Candida parapsilosis 22019 assessed as inhibition of fungal growth incubated for 24 hrs by CLSI protocol based microbroth dilution method; type: functional; details: Lodderomyces parapsilosis
[15] = AUC (0 to t) in male ICR (CD-1) mouse at 10 mg/kg, po by LC-MS/MS analysis; type: ADME, organism-based; details: in vivo
Candida tropicalis [16] = assay: Antifungal activity against Candida tropicalis 2718 assessed as inhibition of fungal growth at 32 ug/ml incubated for 24 hrs by plate reader analysis; type: functional, organism-based; details: dose 32.0 µg/ml
[Candida] auris [17] = Antifungal activity against fluconazole resistant Candida auris BS12372 assessed as inhibition of fungal growth incubated for 48 hrs by CLSI protocol based microbroth dilution method; type: functional; details: Candidozyma auris
Candida albicans [18] = assay: Antifungal activity against Candida albicans SC5314 infected in ICR mouse model assessed as fungal burden in kidney at 5 mg/kg/day, po pre-infected with fungi for 2 hrs followed by compound administration and measured after 48 hrs (reference value: 3.89 Log10CFU/g); type: functional
Aspergillus fumigatus = assay: Antifungal activity against Aspergillus fumigatus 7544 assessed as inhibition of fungal growth incubated for 48 hrs by CLSI protocol based microbroth dilution method; type: functional
[19] = Cmax in male ICR (CD-1) mouse at 10 mg/kg, po by LC-MS/MS analysis; type: ADME, organism-based; details: in vivo
[20] = Volume of distribution at steady state in male ICR (CD-1) mouse at 5 mg/kg, iv by LC-MS/MS analysis; type: ADME, organism-based; details: in vivo, read-out: Vdss
Cell membrane = assay: Disruption of cell membrane integrity in Candida albicans SC5314 assessed as increase in increase in red fluorescence at 0.5 ug/ml incubated for 8 hrs by PI staining based fluorescence microscopic analysis; details: dose 0.5 µg/ml
Nakaseomyces glabratus [21] = assay: Antifungal activity against Candida glabrata 537 assessed as inhibition of fungal growth at 0.25 ug/ml incubated for 24 hrs by plate reader analysis; type: functional, organism-based; details: dose 0.25 µg/ml
[Candida] auris [22] = Antifungal activity against fluconazole resistant Candida auris 789 assessed as inhibition of fungal growth incubated for 48 hrs by CLSI protocol based microbroth dilution method; type: functional; details: Candidozyma auris
Erythrocyte = assay: Hemolytic activity in rabbit RBC assessed as hemolysis at 64 ug/ml incubated for 1 hrs by absorbance based assay; type: toxicity, cell-based, Oryctolagus cuniculus; details: dose 64 µg/ml
[23] = AUC (0 to t) in male ICR (CD-1) mouse at 5 mg/kg, iv by LC-MS/MS analysis; type: ADME, organism-based; details: in vivo
[Candida] auris [24] = Antifungal activity against fluconazole resistant Candida auris 887 assessed as inhibition of fungal growth incubated for 48 hrs by CLSI protocol based microbroth dilution method; type: functional; details: Candidozyma auris
Candida albicans [25] = assay: Antifungal activity against Candida albicans SC5314 infected in ICR mouse model assessed as median survival time at 1 mg/kg/day, po pre-infected with fungi for 2 hrs followed by compound administration and measured after 48 hrs (reference value: 3.5 days); type: functional
Cryptococcus neoformans [26] = assay: Antifungal activity against Cryptococcus neoformans H99 assessed as inhibition of fungal growth at 0.125 ug/ml incubated for 48 hrs by plate reader analysis; type: functional, organism-based; details: dose 0.125 µg/ml
[27] = MRT (0 to t) in male ICR (CD-1) mouse at 10 mg/kg, po by LC-MS/MS analysis; type: ADME, organism-based; details: in vivo
Candida albicans [28] = assay: Inhibition of biofilm formation in Candida albicans SC5314 incubated for 24 hrs by XTT reduction assay; type: functional, organism-based; details: dose 0.008-4 µg/ml
[Candida] auris [29] = Antifungal activity against fluconazole resistant Candida auris 791 assessed as inhibition of fungal growth incubated for 48 hrs by CLSI protocol based microbroth dilution method; type: functional; details: Candidozyma auris
Candida albicans [30] = assay: Inhibition of biofilm formation in Candida albicans SC5314 at 0.008 ug/ml incubated for 24 hrs by XTT reduction assay relative to control; type: functional
[31] = molecular target: T1, Lanosterol 14-alpha demethylase; assay: Inhibition of CYP51 in Candida albicans SC5314 assessed as increase in obtusifoliol level at 0.008 ug/ml incubated for 8 hrs by GC-MS analysis relative to control; parameters: scale not given: the % may be the effect or the level left; details: at 0.008 µg/mL
[Candida] auris [32] = Antifungal activity against fluconazole resistant Candida auris 888 assessed as inhibition of fungal growth incubated for 48 hrs by CLSI protocol based microbroth dilution method; type: functional; details: Candidozyma auris
Pichia kudriavzevii [33] = assay: Antifungal activity against Candida krusei 4946 assessed as inhibition of fungal growth incubated for 24 hrs by CLSI protocol based microbroth dilution method; type: functional
Candida albicans [34] = assay: Antifungal activity against Candida albicans SC5314 assessed as inhibition of fungal growth incubated for 24 hrs by CLSI protocol based microbroth dilution method; type: functional
[35] = MRT (0 to t) in male ICR (CD-1) mouse at 5 mg/kg, iv by LC-MS/MS analysis; type: ADME, organism-based; details: in vivo
[36] = Half-life in male ICR (CD-1) mouse at 5 mg/kg, iv by LC-MS/MS analysis; type: ADME, organism-based; details: in vivo
Candida albicans [37] = assay: Antifungal activity in Candida albicans SC5314 assessed as inhibition of fungal growth incubated for 17 days by induction of resistance assay; type: functional; details: SC5314, 408 h, time 17 day
Cryptococcus neoformans [38] = assay: Antifungal activity against Cryptococcus neoformans H99 assessed as inhibition of fungal growth incubated for 72 hrs by CLSI protocol based microbroth dilution method; type: functional
Candida albicans [39] = assay: Antifungal activity against Candida albicans SC5314 infected in ICR mouse model assessed as reduction in fungal burden in kidney pre-infected with fungi for 2 hrs followed by oral administration of compound and measured after 48 hrs; type: functional, organism-based; details: dose 1-5 mg/kg/day

For C[C@@H](n1ccc2cc(Cl)ccc2c1=O)[C@](O)(Cn1cnnn1)c1ccc(F)cc1F, the Activity [1] was 24.85%, the half-life [2] was 6.71 h and the Activity (Pichia kudriavzevii [3]) was “Active”. The Activity (Candida albicans [4]) was “Active”, the MIC (Candida albicans [5]) was 0.016 µg/mL (≈ 0.0371 µM) and the MIC50 (Nakaseomyces glabratus [6]) was under 0.008 µg/mL. It also gave an Activity (Candida albicans [7]) of 2.92 log10CFU/g, a bioavailability [8] of 36.8% and an MIC50 ([Candida] auris [9]) of under 0.125 µg/mL. For the same molecule, the clearance [10] was 3.27 mL/min/kg, the MIC50 (Candida tropicalis [11]) was under 0.008 µg/mL and the MST (Candida albicans [12]) was 10 days. The “inhibition (INH)” value [13] was “Active”, the Tmax [14] was 2 h and the MIC50 (Candida parapsilosis) was under 0.008 µg/mL. For the same molecule, the AUC(0-t) [15] was 13600 ng·h/mL, the Activity (Candida tropicalis [16]) was “Active” and the MIC50 ([Candida] auris [17]) was under 0.125 µg/mL. The Activity (Candida albicans [18]) was 2.25 log10CFU/g, the MIC50 (Aspergillus fumigatus) was 2 µg/mL (≈ 4.63 µM) and the Cmax [19] was 2630 ng/mL. The Vd [20] was 1.23 L/kg, the Activity (Cell membrane) was “Active” and the Activity (Nakaseomyces glabratus [21]) was “Active”. The MIC50 ([Candida] auris [22]) was 0.5 µg/mL (≈ 1.16 µM), the Activity (Erythrocyte) was “Non-Toxic” and the AUC(0-t) [23] was 18500 ng·h/mL. The MIC50 ([Candida] auris [24]) was 0.5 µg/mL (≈ 1.16 µM), the MST (Candida albicans [25]) was 8.5 days and the Activity (Cryptococcus neoformans [26]) was “Active”. For the same molecule, the MRT last [27] was 3.66 h, the inhibition (Candida albicans [28]) was “Dose-Dependent Effect” and the MIC50 ([Candida] auris [29]) was 1 µg/mL (≈ 2.32 µM). It also gave an inhibition at 0.008 µg/mL (Candida albicans [30]) of over 70%, an Activity [31] of 19.33% and an MIC50 ([Candida] auris [32]) of 0.25 µg/mL (≈ 0.579 µM). It also gave an MIC50 (Pichia kudriavzevii [33]) of 0.031 µg/mL (≈ 0.0718 µM), an MIC50 (Candida albicans [34]) of under 0.008 µg/mL and an MRT last [35] of 3.27 h. The half-life [36] was 4.28 h, the MIC (Candida albicans [37]) was 0.125 µg/mL (≈ 0.289 µM) and the MIC50 (Cryptococcus neoformans [38]) was under 0.008 µg/mL. For the same molecule, the Activity (Candida albicans [39]) was “Dose-Dependent Effect”.

Reference: ChEMBL document CHEMBL5543144, “Discovery of a Novel Potent Tetrazole Antifungal Candidate with High Selectivity and Broad Spectrum” (J Med Chem, 2024)
